Literature values in publication PMC11874007, “Switching Roles—Exploring Concentration-Dependent Agonistic versus Antagonistic Behavior of Integrin Ligands” (Journal of Medicinal Chemistry, 2025).

What was measured:
[1] = target: T1, human αvβ3-integrin (Homo sapiens, UniProt P05106+P06756); conditions: previously published values; cited from earlier work
T1 construct: purchased R&D 3050-AV-050

[2] = target: T2, human αvβ6-integrin (Homo sapiens, UniProt P06756+P18564); conditions: previously published values; cited from earlier work
T2 construct: purchased R&D 3817-AV-050
T2 sequence (P06756 31-992 limits assumed): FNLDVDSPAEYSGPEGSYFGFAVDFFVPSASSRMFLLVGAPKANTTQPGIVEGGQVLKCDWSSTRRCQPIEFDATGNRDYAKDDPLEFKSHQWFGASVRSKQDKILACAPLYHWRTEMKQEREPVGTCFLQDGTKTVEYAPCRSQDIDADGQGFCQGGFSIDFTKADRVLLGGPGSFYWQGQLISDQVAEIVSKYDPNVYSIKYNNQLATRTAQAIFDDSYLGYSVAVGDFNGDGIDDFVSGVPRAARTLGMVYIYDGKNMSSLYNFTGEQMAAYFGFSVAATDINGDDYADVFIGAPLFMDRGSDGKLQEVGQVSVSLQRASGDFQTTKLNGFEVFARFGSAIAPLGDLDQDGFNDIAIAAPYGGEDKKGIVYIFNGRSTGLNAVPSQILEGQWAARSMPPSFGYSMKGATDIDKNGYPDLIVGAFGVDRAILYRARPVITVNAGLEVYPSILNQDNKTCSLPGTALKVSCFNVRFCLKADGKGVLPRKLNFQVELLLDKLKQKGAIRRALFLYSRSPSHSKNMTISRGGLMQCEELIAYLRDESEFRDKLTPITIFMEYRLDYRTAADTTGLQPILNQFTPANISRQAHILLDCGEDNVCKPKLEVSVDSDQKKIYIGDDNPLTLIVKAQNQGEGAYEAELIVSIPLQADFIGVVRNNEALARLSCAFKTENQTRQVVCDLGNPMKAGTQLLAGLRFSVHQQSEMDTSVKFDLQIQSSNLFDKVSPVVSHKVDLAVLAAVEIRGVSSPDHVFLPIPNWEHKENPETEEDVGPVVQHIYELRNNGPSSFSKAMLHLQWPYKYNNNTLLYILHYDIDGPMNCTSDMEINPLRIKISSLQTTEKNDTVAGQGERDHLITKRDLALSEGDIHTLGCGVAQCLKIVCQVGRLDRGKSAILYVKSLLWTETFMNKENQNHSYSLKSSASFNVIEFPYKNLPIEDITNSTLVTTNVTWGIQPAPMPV
T2 sequence (P18564 22-707 limits assumed): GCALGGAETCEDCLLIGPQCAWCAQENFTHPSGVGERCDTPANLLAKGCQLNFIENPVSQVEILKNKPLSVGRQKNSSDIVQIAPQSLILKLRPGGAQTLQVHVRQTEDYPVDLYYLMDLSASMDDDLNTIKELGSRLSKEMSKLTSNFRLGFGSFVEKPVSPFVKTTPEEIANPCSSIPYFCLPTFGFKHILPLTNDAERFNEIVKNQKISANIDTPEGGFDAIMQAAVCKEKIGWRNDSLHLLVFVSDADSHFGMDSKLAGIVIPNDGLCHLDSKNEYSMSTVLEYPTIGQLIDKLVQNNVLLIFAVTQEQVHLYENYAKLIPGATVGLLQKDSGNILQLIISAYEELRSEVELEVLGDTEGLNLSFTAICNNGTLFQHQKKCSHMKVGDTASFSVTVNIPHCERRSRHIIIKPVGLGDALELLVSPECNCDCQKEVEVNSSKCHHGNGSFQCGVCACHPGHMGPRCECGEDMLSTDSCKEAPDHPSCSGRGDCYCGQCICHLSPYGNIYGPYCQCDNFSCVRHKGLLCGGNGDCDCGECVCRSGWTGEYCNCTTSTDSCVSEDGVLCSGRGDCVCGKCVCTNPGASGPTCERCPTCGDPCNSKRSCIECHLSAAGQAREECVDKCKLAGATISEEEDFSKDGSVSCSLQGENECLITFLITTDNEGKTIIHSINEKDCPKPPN

T1 sequence (P06756 31-992 limits assumed): as the sequence (P06756 31-992 limits assumed) above
T1 sequence (P05106 27-718 limits assumed): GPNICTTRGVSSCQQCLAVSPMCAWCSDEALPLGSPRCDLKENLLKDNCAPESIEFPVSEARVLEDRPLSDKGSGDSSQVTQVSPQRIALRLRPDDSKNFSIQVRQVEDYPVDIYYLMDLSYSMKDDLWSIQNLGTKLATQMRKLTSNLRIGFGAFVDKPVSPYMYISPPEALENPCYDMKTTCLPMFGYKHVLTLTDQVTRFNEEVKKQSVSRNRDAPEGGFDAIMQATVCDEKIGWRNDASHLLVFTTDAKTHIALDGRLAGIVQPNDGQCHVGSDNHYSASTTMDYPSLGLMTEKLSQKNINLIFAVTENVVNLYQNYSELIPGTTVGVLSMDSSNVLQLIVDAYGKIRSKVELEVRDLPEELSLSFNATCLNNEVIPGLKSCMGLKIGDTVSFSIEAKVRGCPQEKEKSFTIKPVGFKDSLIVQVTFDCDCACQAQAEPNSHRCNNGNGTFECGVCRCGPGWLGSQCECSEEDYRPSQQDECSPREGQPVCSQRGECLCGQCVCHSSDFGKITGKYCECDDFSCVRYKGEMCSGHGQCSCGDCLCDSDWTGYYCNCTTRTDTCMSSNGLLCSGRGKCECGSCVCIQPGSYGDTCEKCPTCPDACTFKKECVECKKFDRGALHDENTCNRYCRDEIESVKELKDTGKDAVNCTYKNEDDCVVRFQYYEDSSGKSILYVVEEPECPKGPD

For c(FRGDLAFp(NMe)K) [L3], the IC50 [1] is given as greater than 1000 nM and the IC50 [2] is given as 0.28 ± 0.019 nM.
